Experiments:
PDIA17 = molecular target: T1, PDIA17 (Homo sapiens, UniProt O95994); assay: Insulin reduction turbidimetry assay, PDIA17; assay type: biochemical
T1 construct: PDIA17 (recombinant protein ab64013, human, full length, E.coli, Abcam, Cambridge); purchased Abcam ab64013; host or cells: E. coli
T1 sequence (O95994 21-175): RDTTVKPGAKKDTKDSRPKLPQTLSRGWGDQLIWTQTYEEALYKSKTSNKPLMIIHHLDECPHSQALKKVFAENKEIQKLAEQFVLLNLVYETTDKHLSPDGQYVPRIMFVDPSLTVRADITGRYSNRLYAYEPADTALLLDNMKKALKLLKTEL
Protocol: The PDI inhibitor activity towards PDIA1, PDIA3 and PDIA17 was assessed as an increase in disulphide bond reduction in human insulin in the presence of DL-dithiotreitol (DTT) causing aggregation of its β-chain, analyzed by turbidimetry as presented earlier by Kalvins et al. and Chlopicki et al. (see Additional file 1: Methods for more details).
The PDI inhibitors’ activity towards PDIA1, PDIA3 and PDIA17 was assessed as an increase in disulphide bond reduction in human insulin in the presence of DTT causing aggregation of its β-chain, analyzed by turbidimetry as presented earlier by Kalvins et al. 2021 and Chlopicki et al., 2021. Briefly, the assay mixture for 96-well plates was prepared by dissolving in […] phosphate buffer (pH 7.6 for activity testing of PDIA1, PDIA3 and pH 8.0 for PDIA17), 6 µg/ml (96 nM) of PDIA1 (recombinant protein MBS9422429, human, full length, 18-508aa His-tag, E.coli, MyBioSource, San Diego, CA, USA), PDIA3 (recombinant protein MBS203583, 25-505aa, human, His-tag, E.coli, MyBioSource, San Diego, CA, USA) or PDIA17 (recombinant protein ab64013, human, full length, E.coli, Abcam, Cambridge), 2 mM EDTA and 0.08 mM DTT (D9779 Sigma-Aldrich, Steinheim, Germany). Stock solutions of C-3353, C-3380, C-3389 and C-3399 were freshly prepared in dimethyl sulfoxide (DMSO) and subsequently diluted to keep the final DMSO concentration in the assay mixture below 1%. Calculated amounts of compounds solutions were added into test wells, and the reaction was started by the addition of insulin (insulin 91077C, human recombinant; Sigma-Aldrich, Steinheim, Germany) and 0.08 mM of DTT. The final concentration of insulin and DTT in the assay mixture was 0.15 and 0.16 mM, respectively. The reaction rate was monitored at 650 nm on a Microplate Reader Infinite M1000 PRO for 60 minutes at 37°C. Turbidity values for the wells containing only the PDI isoform tested (background values) were subtracted from the turbidity values of the wells containing the tested PDI isoform and selected inhibitors. […]

MDA-MB-231 cells [1] = assay: MTT cell viability assay, MDA-MB-231; assay type: cell-based; details: Homo sapiens; MDA-MB-231 (low PDIA17), 72 h; read-out: IC50, MTT proliferation
Protocol: (§1) The proliferation rate of the cells was measured using an MTT assay. (see Additional file 1: Methods for details). IC50 parameter was determined as previously described.
(§2) The proliferation rate of the cells was measured using an MTT assay. The cells were seeded on 96-well plates (Sarstedt, Warsaw, Poland) at a density of MDA-MB-231, BALB/3T3 and MCF10A 1×10^4 cells/well, MCF-7 0.75×10^4 cells/well. Cells were incubated in the appropriate culture medium for 24 h before adding the tested compounds. Cells were then treated with each compound in four concentrations in the range 100–0.1 µg/mL. […] Absorbance was measured using a Bio Tek Hybrid H4 reader (BioTek Instruments, USA) at 570 nm wavelength.
(§3) Compounds at each concentration were tested in triplicate in a single experiment, and each experiment was repeated at least three times independently.

MCF-7 cells [2] = assay: MTT cell viability assay, MCF-7; assay type: cell-based; details: Homo sapiens, MCF7; MCF-7 (high PDIA17), 72 h; read-out: IC50, MTT proliferation
Protocol: as §1, §2, §3

[3] = MTT cytotoxicity against regular cell line BALB/3T3; assay type: cell-based; details: balb/3t3 cells, BALB/3T3 mouse fibroblasts, read-out: IC50, cytotoxicity against regular cell line
Protocol: as §1
(§4) To test cytotoxicity of compounds used in this study against regular cell lines, BALB/3T3 and MCF10A cells were used, mouse fibroblast and human breast epithelial cell line, respectively.
as §2, §3

[4] = MTT cytotoxicity against regular cell line MCF10A; assay type: cell-based; details: MCF10A human breast epithelial cells, read-out: IC50, cytotoxicity against regular cell line
Protocol: as §1, §4, §2, §3

MCF-7 cells [5] = assay: Cancer cell adhesion to collagen type I, MCF-7; assay type: cell-based; details: Homo sapiens, MCF7
Protocol: (§5) Detailed procedures for the cancer cell adhesion studies are described in Additional file 1: Methods.
(§6) Briefly, 96-well plates (Corning, Tewksbury, MA, USA) were coated with collagen type I at a concentration of 10 μg/mL (Sigma-Aldrich, Steinheim, Germany) and incubated at 4°C overnight. After 24 h, the plates were blocked with 1% bovine serum albumin (BSA) (Sigma-Aldrich, Steinheim, Germany) in DPBS buffer (Gibco, Scotland, UK) for 60 minutes at 37°C. […] Then, cancer cells were left to adhere to collagen I for 30 min at 37°C. Non-adherent cells were gently washed twice with DPBS, and attached cells were counted in nine randomly selected visual fields for each well using a CQ1 image cytometer (Yokogawa, Tokyo, Japan). Experiments were conducted twice in six technical replicates. The images were analyzed using Columbus 2.4.2 software (Perkin Elmer, Waltham, MA, USA).

MDA-MB-231 cells [6] = assay: Cancer cell adhesion to collagen type I, MDA-MB-231; assay type: cell-based; details: Homo sapiens
Protocol: as §5, §6

PDIA1 = details: recombinant human PDIA1, insulin/DTT turbidimetry, pH 7.6; cited from earlier work
PDIA3 = details: recombinant human PDIA3, insulin/DTT turbidimetry, pH 7.6; cited from earlier work
MCF-7 cells [7] = assay: ECIS wound healing migration assay, MCF-7; assay type: cell-based; details: Homo sapiens, MCF7, tested 10, 30, 100 µM, read-out: Concentration substantially reducing migration rate (ECIS wounding assay)
From the text: (§7) The migration of MCF-7 and MDA-MB-231 cells was monitored using real-time quantitative wound healing assays and 96W1E + ECIS arrays (Applied Biophysics, Troy, NY, USA) according to the procedure reported by Stojak et al. with minor modifications and C-3353 inhibitor as a tested compound. Detailed procedures for the ECIS studies are described in Additional file 1: Methods.
(§8) The migration of MCF-7 and MDA-MB-231 cells was monitored using real-time quantitative wound healing assays and 96W1E+ ECIS arrays (Applied Biophysics, Troy, NY, USA) according to the procedure reported by Stojak et al. (2020) with minor modifications. To this end, MDA-MB-231 cells were seeded at a density of 3 × 10^4 per well and MCF-7 cells at a density of 6 × 10^4 cells per well. Before the cell seeding procedure, the 96W1E+ plate was pretreated with 10 mM L-cysteine (Sigma-Aldrich, Steinheim, Germany) according to the manufacturer’s instruction. Immediately after cell seeding, resistance (Ω), capacitance (µF) and impedance (Ω) measurements were initiated at frequencies from 250 Hz to 64 kHz (250, 500, 1000, 2000, 4000, 8000, 16,000, 32,000 and 64,000 Hz) using the multiple frequency time mode. […] The healing process was measured continuously as cells migrated onto the electrode. The area under the curve (AUC) was quantified and normalized to the untreated control. […]

MDA-MB-231 cells [8] = assay: ECIS wound healing migration assay, MDA-MB-231; assay type: cell-based; details: Homo sapiens, tested 10, 30, 100 µM, read-out: Concentration effectively inhibiting migration (ECIS wounding assay)
From the text: as §7, §8

Row | Compound | IC50 (PDIA17) [µM] | IC50 PDIA17 (PDIA17; recombinant human PDIA17, insulin/DTT turbidimetry, pH 8.0, n.a. = not active in range of concentrations used) | IC50 (MDA-MB-231 cells [1]) [µM] | IC50 (MCF-7 cells [2]) [µM] | CC50 at 72 h [3] [µM] | CC50 at 72 h [4] [µM] | activity at 3 µM (MCF-7 cells [5]; MCF-7, inhibitor 3 µM) [%] | activity at 10 µM (MDA-MB-231 cells [6]; MDA-MB-231, inhibitor 10 µM) [%] | IC50 (PDIA1) [µM] | IC50 (PDIA3) [µM] | IC50 PDIA3 (PDIA3) | minimal effective concentration (MCF-7 cells [5]; MCF-7, read-out: Concentration inhibiting adhesion to collagen) [µM] | minimal effective concentration (MDA-MB-231 cells [6]; MDA-MB-231, read-out: Concentration inhibiting adhesion to collagen) [µM] | minimal effective concentration (MCF-7 cells [7]) [µM] | minimal effective concentration (MDA-MB-231 cells [8]) [µM] | IC50 PDIA1 (PDIA1)
1 | COC(=O)C1CN1S(=O)(=O)c1ccc2c(N(C)C)cccc2c1 (stereo not drawn) [Inhibitor C-3399] | > 200 | not effective | 8.69 ± 0.89 | 11.1 ± 0.78 | 38.2 ± 10.3 | 17.9 ± 1.15 | ~50 | ~75 | 0.12 | 4 | low micromolar range | – | – | – | – | –
2 | COC(=O)C1CN1S(=O)(=O)c1ccc(F)cc1F (stereo not drawn) [Inhibitor C-3353] | 20.1 | – | 87.4 ± 9.42 | 22.5 ± 6.42 | > 360 | 75.6 ± 4.05 | – | – | 5 | 143 | not on PDIA3 | 3 | 50 | ≥ 30 | 100 | inhibitory effect on PDIA1
